Experimental data as given in US10870633B2, “Types of C-3 substituted kynurenic acid derivatives with improved neuroprotective activity” (SZEGEDI TUDOMÁNYEGYETEM, priority 2016, dated 2020).
Several values for one entry are separate records, joined by “and”; a condition that tells them apart may be missing. Equal values may be shown once. Read-outs that look alike come from different tables or passages of the source.

Legend:
[1] = Passage on the culture model of the blood-brain barrier (bidirectional permeability); type: in vitro ADME, rat; conditions: rat, 10 μM; for Papp A→B at 60 min, 10 μM / Papp A→B at 30 min, 10 μM: AB (from blood to brain) direction; for Papp B→A at 60 min, 10 μM / Papp B→A at 30 min, 10 μM: BA (from brain to blood) direction; for efflux ratio at 60 min, 10 μM: read-out: Efflux ratio: Papp BA/PappAB
From the text: (§1) The blood-brain barrier model prepared by the co-cultivation of three cell types (primary rat brain endothelial cells, primary glia and brain microvascular pericyte cells) was used for the permeability experiments (Nakagawa S, Deli M A, Kawaguchi H, Shimizudani T, Shimono T, Kittel A, Tanaka K, Niwa M. Anew blood-brain barrier model using primary rat brain endothelial cells, pericytes and astrocytes. Neurochem Int. 2009 March-April; 54(3-4):253-63. doi: 10.1016/j.neuint.2008.12.002.; Veszelka S, Tóth A E, Walter F R, Datki Z, Mózes E, Fülöp L, Bozsó Z, Hellinger E, Vastag M, Orsolits B, Környei Z, Penke B, Deli M A. Docosahexaenoic acid reduces amyloid-β induced toxicity in cells of the neurovascular unit. J Alzheimers Dis. 2013; 36(3):487-501.).
(§2) Passage of the compounds of the invention was tested in two directions AB (“from blood to brain”) and BA (“from brain to blood”), in 10 μM concentration.
(§3) The permeability experiment took 60 minutes, with sampling at 30 and 60 minutes from the acceptor compartment.
(§4) The concentrations of the active substances passed through the endothelial cell layer were determined with mass spectrometry. By using the measured concentrations and the known data (volume, starting concentration) the clearance (μl) values, or from the clearance and volume data, by taking the surface and the time into consideration, the so-called permeability coefficients (papp, apparent permeability coefficient; measurement unit 10^−6 cm/s) were calculated, which provide the permeation rates of the compounds.

[2] = system: blood-brain barrier model (co-cultivation of primary rat brain endothelial cells, primary glia and brain microvascular pericyte cells); assay: as above; type: in vitro ADME; conditions: for Papp A-B 30′ / Papp A-B 60′ / Papp B-A 30′ / Papp B-A 60′ / Passage through the blood-brain barrier compared to the 24/1 and 24/2 comparative compounds / Efflux ratio: Papp BA/PappAB: 10 μM; for Papp A-B 30′ / Papp A-B 60′: AB (from blood to brain) direction; for Papp A-B 30′ / Papp B-A 30′: sampling at 30 minutes; for Papp A-B 30′ / Papp A-B 60′ / Papp B-A 30′ / Papp B-A 60′: single replicates; for Papp A-B 60′ / Papp B-A 60′: sampling at 60 minutes; for Papp B-A 30′ / Papp B-A 60′: BA (from brain to blood) direction; for Passage through the blood-brain barrier compared to the 24/1 and 24/2 comparative compounds: FIG. 2; for Permeability grade in words: blood-brain barrier model
From the text: as §1, §2, §3, §4

[3] = system: fEPSP from the stratum radiatum layer of the CA1 region of the hippocampus; assay: In vitro electrophysiology on hippocampal brain slices (fEPSP amplitude, CA1); type: cell-based, Wistar rats; conditions: for fEPSP amplitude, minutes 31-40 of recording (washing in phase): normalized to the averages of the amplitudes of the control phase, last 10 minutes of washing in; for fEPSP amplitude, minutes 61-70 of recording (washing off phase): after 200 μM, normalized to the control phase, last 10 minutes of recording
Experimental: In the course of our experiments young adult (200-250 g) male Wistar rats were used. Until the start of the experiments the animals were housed in the animal house of the Department of Physiology, Anatomy and Neuroscience, University of Szeged, in standard plastic cages, where 12-12 hours light-dark cycles, standard 23° C. temperature and free access to water and food were provided. In the course of the experiments we aimed at using a minimum number of animals and to cause them the smallest degree of suffering. In each case the principles relating to the care of laboratory animals, the animal care related protocol approved by the Hungarian Health Committee (1998), and the Decree of the Council of the European Communities of 22 Sep. 2010 (2010/63/EU) were followed.
The animals received Isoflurane (3% and then 1%) inhalation anaesthesia for the electrophysiological measurements. After ensuring that the animals were in a deep sleep phase (the paw withdrawal reflex occurring for squeezing stopped), they were decapitated. By incising the head skin and the underlying connective tissue the skull was exposed. Then incisions were made in longitudinal direction along the sagittal suture as well as in transversal direction along the suture coronalis, furthermore caudally therefrom in the right and left direction. After the opening the bregma coronalis incisions were made behind the bulbi and in front of the cerebellum, allowing the removal of the approx. 3 mm thick brain region, containing the hippocampus. From the middle part of the hippocampus 350 μm thick slices were prepared with vibratome (Leica VT1200S, Germany). The cutting was performed in artificial cerebrospinal fluid (aCSF), whose temperature was 4° C. maximum. The aCSF was composed of: 130 mM NaCl, 3.5 mM KCl, 1 mM NaH2PO4, 24 mM NaHCO3, 1 mM […], 3 mM MgSO4 and 10 mM D-glucose (Sigma, Germany). The cut slices were placed in recording aCSF of room temperature, whose composition differed only in the 3 mM CaCl2) and 1.5 MgSO4 concentrations from the one used for cutting. Both the cutting and the recording aCSF were oxygenated with carbogen (95% O2, 5% CO2), for providing the suitable and uninterrupted O2 supply. After the preparation of all the hippocampal slices the recording aCSF in the slice holder container was warmed to 34-35° C., and the brain slices were left to recover for one hour under these conditions in order to assure the proceeding of the regeneration processes started against the damages caused in the course of the slice-preparation. […]
For the electrophysiological recordings a concentric stainless steel electrode (Neuron elektród kft; Budapest, Hungary) was placed in the stratum radiatum layer between the CA3-CA1 regions of the hippocampus, wherein the stimulation was performed with constant current intensity, with 0.2 ms pulses of 0.033 Hz frequency. By positioning the recording electrodes of 2-3 MΩ filled with aCSF in orthodrom position from the previously mentioned region, stimulating postsynaptic field potentials (fEPSP) were conducted from the stratum radiatum layer of the CA1 region, and their amplitudes were monitored.
Submaximal stimulation was used, i.e. about 70-80% of the intensity of the smallest pulse causing the fEPSP of maximum amplitude was used. […] The results were evaluated with the OriginPro 8 (OriginLab Corporation, Northampton, Mass., USA) software. […]

[4] = Solubility compared to previously synthesized analogues (statement); type: physicochemical
[5] = average, n=6, read-out: Papp A-B Average
[6] = sampling at 60 minutes, single replicates, read-out: Papp A-B 60′
[7] = average, n=6, read-out: Papp B-A Average
[8] = sampling at 60 minutes, single replicates, read-out: Papp B-A 60′

Cl.O=C(O)c1nc2ccccc2c(O)c1CN1CCOCC1 [Example 5, 4-hydroxy-3-(morpholinomethyl)quinoline-2-carboxylic acid hydrochloride]
Papp A→B at 60 min, 10 μM [1, 5]: 11 ×10⁻⁶ cm/s | Papp A→B at 30 min, 10 μM ([1]; single replicates): 7.4 ×10⁻⁶ cm/s | Papp A→B at 60 min, 10 μM [1, 6]: 12.4 ×10⁻⁶ cm/s | Papp B→A at 60 min, 10 μM [1, 7]: 5.4 ×10⁻⁶ cm/s | Papp B→A at 30 min, 10 μM ([1]; single replicates): 2.5 ×10⁻⁶ cm/s | Papp B→A at 60 min, 10 μM [1, 8]: 7.6 ×10⁻⁶ cm/s | efflux ratio at 60 min, 10 μM [1]: ~0.5 | Papp A-B 30′ ([2]; hydrochloride): 8.9 10^−6 cm/s and 8.2 10^−6 cm/s | Papp A-B 60′ ([2]; hydrochloride): 15.4 10^−6 cm/s and 13.9 10^−6 cm/s | Papp B-A 30′ ([2]; hydrochloride): 4.0 10^−6 cm/s and 3.2 10^−6 cm/s | Papp B-A 60′ ([2]; hydrochloride): 7.8 10^−6 cm/s and 7.5 10^−6 cm/s | Passage through the blood-brain barrier compared to the 24/1 and 24/2 comparative compounds [2]: doubled | Permeability grade in words [2]: medium permeability

CN(C)CCNC(=O)c1nc2ccccc2c(O)c1CN1CCOCC1 [Example 16, N-(2-(dimethylamino)ethyl)-4-hydroxy-3-(morpholinomethyl)quinoline-2-carboxamide]
Papp A→B at 60 min, 10 μM [1, 5]: 36.9 ×10⁻⁶ cm/s | Papp A→B at 30 min, 10 μM ([1]; single replicates): 32.7 ×10⁻⁶ cm/s | Papp A→B at 60 min, 10 μM [1, 6]: 37.8 ×10⁻⁶ cm/s | Papp B→A at 60 min, 10 μM [1, 7]: 22 ×10⁻⁶ cm/s | Papp B→A at 30 min, 10 μM ([1]; single replicates): 20.1 ×10⁻⁶ cm/s | Papp B→A at 60 min, 10 μM [1, 8]: 21.7 ×10⁻⁶ cm/s | efflux ratio at 60 min, 10 μM [1]: ~0.5 | Papp A-B 30′ [2]: 37.2 10^−6 cm/s and 38.0 10^−6 cm/s | Papp A-B 60′ [2]: 37.4 10^−6 cm/s and 38.6 10^−6 cm/s | Papp B-A 30′ [2]: 21.8 10^−6 cm/s and 21.3 10^−6 cm/s | Papp B-A 60′ [2]: 23.2 10^−6 cm/s and 23.8 10^−6 cm/s | Passage through the blood-brain barrier compared to the 24/1 and 24/2 comparative compounds [2]: six times higher | Permeability grade in words [2]: high permeability

CCN(CC)Cc1c(C(=O)NCCN2CCCC2)nc2ccccc2c1O [Example 17, 3-((diethylamino)methyl)-4-hydroxy-N-(2-(pyrrolidin-1-yl)ethyl)quinoline-2-carboxamide]
fEPSP amplitude, minutes 31-40 of recording (washing in phase) ([3]; 200 μM): 124.66±10.43% | fEPSP amplitude, minutes 61-70 of recording (washing off phase) [3]: 110.73±7.63%

O=C(NCCN1CCCC1)c1nc2ccccc2c(O)c1CN1CCOCC1 [Example 20, 4-hydroxy-3-(morpholinomethyl)-N-(2-(pyrrolidin-1-yl)ethyl)quinoline-2-carboxamide]
Papp A→B at 60 min, 10 μM [1, 5]: 18.6 ×10⁻⁶ cm/s | Papp A→B at 30 min, 10 μM ([1]; single replicates): 16.4 ×10⁻⁶ cm/s | Papp A→B at 60 min, 10 μM [1, 6]: 16.9 ×10⁻⁶ cm/s | Papp B→A at 60 min, 10 μM [1, 7]: 25 ×10⁻⁶ cm/s | Papp B→A at 30 min, 10 μM ([1]; single replicates): 22.3 ×10⁻⁶ cm/s | Papp B→A at 60 min, 10 μM [1, 8]: 24.9 ×10⁻⁶ cm/s | efflux ratio at 60 min, 10 μM [1]: ~1 | Papp A-B 30′ [2]: 20.1 10^−6 cm/s and 17.9 10^−6 cm/s | Papp A-B 60′ [2]: 21.5 10^−6 cm/s and 18.8 10^−6 cm/s | Papp B-A 30′ [2]: 24.3 10^−6 cm/s and 25.1 10^−6 cm/s | Papp B-A 60′ [2]: 26.7 10^−6 cm/s and 26.6 10^−6 cm/s | Passage through the blood-brain barrier compared to the 24/1 and 24/2 comparative compounds [2]: triple | fEPSP amplitude, minutes 31-40 of recording (washing in phase) ([3]; 200 μM): 58.14±10.16% | fEPSP amplitude, minutes 61-70 of recording (washing off phase) [3]: 107.14±17.99% | Solubility compared to previously synthesized analogues or other analogues with similar effect [4]: better solubility

Cl.O=C(NCCN1CCCC1)c1cc(O)c2ccccc2n1 [comparative 24/1, 4-hydroxy-N-(2-(pyrrolidin-1-yl)ethyl)quinoline-2-carboxamide, reference compound]
Papp A→B at 60 min, 10 μM [1, 5]: 5.7 ×10⁻⁶ cm/s | Papp A→B at 30 min, 10 μM ([1]; single replicates): 5.4 ×10⁻⁶ cm/s | Papp A→B at 60 min, 10 μM [1, 6]: 7.2 ×10⁻⁶ cm/s | Papp B→A at 60 min, 10 μM [1, 7]: 8.8 ×10⁻⁶ cm/s | Papp B→A at 30 min, 10 μM ([1]; single replicates): 8.3 ×10⁻⁶ cm/s | Papp B→A at 60 min, 10 μM [1, 8]: 12.2 ×10⁻⁶ cm/s | efflux ratio at 60 min, 10 μM [1]: ~1 | Efflux ratio: Papp BA/PappAB [2]: 1.5 | Papp A-B 30′ [2]: 4.5 10^−6 cm/s and 7.4 10^−6 cm/s | Papp A-B 60′ [2]: 3.9 10^−6 cm/s and 5.8 10^−6 cm/s | Papp B-A 30′ [2]: 8.1 10^−6 cm/s and 4.2 10^−6 cm/s | Papp B-A 60′ [2]: 10.5 10^−6 cm/s and 9.2 10^−6 cm/s

CN(C)CCNC(=O)c1cc(O)c2ccccc2n1.Cl [comparative 24/2, N-(2-(dimethylamino)ethyl)-4-hydroxyquinoline-2-carboxamide, reference compound]
Papp A→B at 60 min, 10 μM [1, 5]: 6.7 ×10⁻⁶ cm/s | Papp A→B at 30 min, 10 μM ([1]; single replicates): 4.2 ×10⁻⁶ cm/s | Papp A→B at 60 min, 10 μM [1, 6]: 6 ×10⁻⁶ cm/s | Papp B→A at 60 min, 10 μM [1, 7]: 8.1 ×10⁻⁶ cm/s | Papp B→A at 30 min, 10 μM ([1]; single replicates): 7.6 ×10⁻⁶ cm/s | Papp B→A at 60 min, 10 μM [1, 8]: 9.7 ×10⁻⁶ cm/s | efflux ratio at 60 min, 10 μM [1]: ~1 | Efflux ratio: Papp BA/PappAB [2]: 1.2 | Papp A-B 30′ [2]: 8.3 10^−6 cm/s and 6.4 10^−6 cm/s | Papp A-B 60′ [2]: 8.4 10^−6 cm/s and 6.7 10^−6 cm/s | Papp B-A 30′ [2]: 7.9 10^−6 cm/s and 7.2 10^−6 cm/s | Papp B-A 60′ [2]: 7.9 10^−6 cm/s and 8.5 10^−6 cm/s

O=C(O)c1cc(O)c2ccccc2n1 [kynurenic acid, 4-hydroxy-quinoline-2-carboxylic acid]
fEPSP amplitude decrease in the last 10 minutes of the washing in phase ([3]; 200 μM, preliminary experimental results): 53.86±6.09%
